# Test results from patent US20110015068A1, “Herbicidal Compositions Comprising Pyroxasulfone V” (BASF SE, priority 2008, published 2011).
# Where two headings read alike, the source gives them in different places.
# What was measured:
# Assay type in all cases: in vivo
# Matricaria inermis = assay: post-emergence greenhouse test, MATIN; conditions: 20 DAT
# Description: (§1) For the post-emergence treatment, the test plants were first grown to a height of 3 to 20 cm, depending on the plant habit, and only then treated. Here, the herbicidal compositions were suspended or emulsified in water as distribution medium and sprayed using finely distributing nozzles.
# (§2) The respective herbicides A and/or safener were formulated as 10% by weight strength suspension concentrate and introduced to the spray liquor with the amount of solvent system used for applying the active compound. Herbicide B and/or safener were used as commercially available formulations and introduced to the spray liquor with the amount of solvent system used for applying the active compound. In the examples, the solvent used was water.
# (§3) The test period extended over 21 days. During this time, the plants were tended, and their response to the treatments with active compound was evaluated.
# (§4) The evaluation for the damage caused by the chemical compositions was carried out using a scale from 0 to 100%, compared to the untreated control plants. Here, 0 means no damage and 100 means complete destruction of the plants.
# Setaria lutescens = assay: post-emergence greenhouse test, SETLU; conditions: Setaria pumila, 13 g ai/ha, read-out: observed % activity
# Description: as §1, §2, §3, §4
# Echinochloa crus-galli = assay: post-emergence greenhouse test, ECHCG; conditions: for inhibition at 13 g/ha: Echinochloa crus-galli, 13 g ai/ha, read-out: observed % activity
# Description: as §1, §2, §3, §4
# Chenopodium album = assay: post-emergence greenhouse test, CHEAL; conditions: for inhibition at 13 g/ha / inhibition at 50 g/ha: Chenopodium album, read-out: observed % activity; for inhibition at 13 g/ha: 13 g ai/ha; for inhibition at 50 g/ha: 50 g ai/ha
# Description: as §1, §2, §3, §4
# Alopecurus myosuroides [1] = assay: post-emergence greenhouse test, ALOMY; conditions: for observed activity in % destruction: Table 3; for inhibition at 13 g/ha / inhibition at 100 g/ha: Alopecurus myosuroides, read-out: observed % activity; for inhibition at 13 g/ha: 13 g ai/ha
# Description: as §1, §2, §3, §4
# Setaria faberii = assay: pre-emergence greenhouse test, SETFA; conditions: Setaria faberi, read-out: observed % activity; for inhibition at 25 g/ha: 25 g ai/ha; for inhibition at 50 g/ha: 50 g ai/ha
# Description: (§5) For the pre-emergence treatment, directly after sowing the active compounds, which had been suspended or emulsified in water, were applied by means of finely distributed nozzles. The containers were irrigated gently to promote germination and growth and subsequently covered with transparent plastic hoods until plant had rooted. This cover caused uniform germination of the tests plants, unless this was adversely affected by active compounds.
# as §2, §3, §4
# Polygonum convolvulus = assay: post-emergence greenhouse test, POLCO; conditions: for inhibition at 25 g/ha / inhibition at 50 g/ha / inhibition at 100 g/ha: Fallopia convolvulus, read-out: observed % activity; for inhibition at 25 g/ha: 25 g ai/ha; for inhibition at 50 g/ha: 50 g ai/ha; for inhibition at 100 g/ha: 100 g ai/ha
# Description: as §1, §2, §3, §4
# Alopecurus myosuroides [2] = assay: pre-emergence greenhouse test, ALOMY; conditions: Alopecurus myosuroides, 50 g ai/ha, read-out: observed % activity
# Description: as §5, §2, §3, §4
smiles,measurement,setting,value
"Cn1nc(C(F)(F)F)c(CS(=O)(=O)C2=NOC(C)(C)C2)c1OC(F)F [pyroxasulfone, 3-[5-(difluoromethoxy)-1-methyl-3-(trifluoromethyl)pyrazol-4-ylmethylsulfonyl]-4,5-dihydro-5,5-dimethyl-1,2-oxazole]",observed activity in % destruction,"Matricaria inermis; 12.5 g ai/ha, Table 3",0%
same,observed activity in % destruction,"Matricaria inermis; 25 g ai/ha, Table 3",0%
same,observed activity in % destruction,"Matricaria inermis; 25 g ai/ha, Table 4",0%
same,inhibition at 13 g/ha,"Setaria lutescens; 192 h, 8 DAT",0%
same,inhibition at 13 g/ha,"Setaria lutescens; 480 h, 20 DAT",65%
same,observed activity in % destruction,"Echinochloa crus-galli; 50 g ai/ha, 20 DAT, Table 3",80%
same,inhibition at 13 g/ha,"Echinochloa crus-galli; 192 h, 8 DAT",25%
same,inhibition at 13 g/ha,"Echinochloa crus-galli; 480 h, 20 DAT",80%
same,observed activity in % destruction,"Chenopodium album; 12.5 g ai/ha, 20 DAT, Table 3",35%
same,observed activity in % destruction,"Chenopodium album; 25 g ai/ha, 20 DAT, Table 4",45%
same,inhibition at 13 g/ha,"Chenopodium album; 192 h, 8 DAT",35%
same,inhibition at 50 g/ha,"Chenopodium album; 192 h, 8 DAT",60%
same,inhibition at 13 g/ha,"Chenopodium album; 480 h, 20 DAT",25%
same,inhibition at 50 g/ha,"Chenopodium album; 480 h, 20 DAT",65%
same,observed activity in % destruction,"Alopecurus myosuroides [1]; 50 g ai/ha, 20 DAT",55%
same,observed activity in % destruction,"Alopecurus myosuroides [1]; 100 g ai/ha, 20 DAT",80%
same,inhibition at 13 g/ha,"Alopecurus myosuroides [1]; 192 h, 8 DAT",0%
same,inhibition at 100 g/ha,"Alopecurus myosuroides [1]; 192 h, 100 g ai/ha, 8 DAT",40%
same,inhibition at 13 g/ha,"Alopecurus myosuroides [1]; 480 h, 20 DAT",15%
same,inhibition at 100 g/ha,"Alopecurus myosuroides [1]; 480 h, 100 g ai/ha, 20 DAT",75%
same,inhibition at 25 g/ha,"Setaria faberii; 192 h, 8 DAT",85%
same,inhibition at 50 g/ha,"Setaria faberii; 192 h, 8 DAT",90%
same,inhibition at 25 g/ha,"Setaria faberii; 480 h, 20 DAT",98%
same,inhibition at 50 g/ha,"Setaria faberii; 480 h, 20 DAT",98%
same,observed activity in % destruction,"Polygonum convolvulus; 12.5 g ai/ha, 20 DAT, Table 3",35%
same,inhibition at 25 g/ha,"Polygonum convolvulus; 192 h, 8 DAT",30%
same,inhibition at 50 g/ha,"Polygonum convolvulus; 192 h, 8 DAT",50%
same,inhibition at 100 g/ha,"Polygonum convolvulus; 192 h, 8 DAT",50%
same,inhibition at 25 g/ha,"Polygonum convolvulus; 480 h, 20 DAT",50%
same,inhibition at 50 g/ha,"Polygonum convolvulus; 480 h, 20 DAT",50%
same,inhibition at 100 g/ha,"Polygonum convolvulus; 480 h, 20 DAT",55%
same,inhibition at 50 g/ha,"Alopecurus myosuroides [2]; 192 h, 8 DAT",90%
same,inhibition at 50 g/ha,"Alopecurus myosuroides [2]; 480 h, 20 DAT",98%
